# Measurements taken from ChEMBL document CHEMBL4376834, “Discovery of 4H-Chromen-4-one Derivatives as a New Class of Selective Rho Kinase (ROCK) Inhibitors, which Showed Potent Activity in ex Vivo Diabetic Retinopathy Models” (J Med Chem, 2019).
# Assays:
# [1] = target: Rho-associated protein kinase 2 (Homo sapiens, UniProt O75116); test: Inhibition of recombinant human ROCK2 (11 to 552 residues) using KEAKEKRQEQIAKR as substrate incubated for 40 mins in presence of [gamma-33P]ATP and 10 uM ATP by radiometric scintillation counting analysis
# [2] = target: Serine/threonine-protein kinase BRSK1 (Homo sapiens, UniProt Q8TDC3); test: Inhibition of recombinant human BRSK1 ( 2 to end residues) using KKKVSRSGLYRSP substrate incubated for 40 mins in presence of [gamma-33ATP] by radiometric scintillation counting analysis
# [3] = target: Serine/threonine-protein kinase Nek1 (Homo sapiens, UniProt Q96PY6); test: Inhibition of recombinant human NEK1 (1 to 505 residues) using RLGRDKYKTLRQI as substrate measured after 40 mins in presence of [gamma33P]ATP by radiometric scintillation counting analysis
# [4] = target: Ribosomal protein S6 kinase alpha-5 (Homo sapiens, UniProt O75582); test: Inhibition of recombinant human MSK1 (2 to end residues) using GRPRTSSFAEGKK as substrate incubated for 40 mins in presence of [gamma-33ATP by radiometric scintillation counting analysis
# [5] = target: Ephrin type-A receptor 1 (Homo sapiens, UniProt P21709); test: Inhibition of recombinant human EphA1 (568 to end residues) using KKKSPGEYVNIEF as substrate after 40 mins in presence of [gamma-33ATP] by radiometric scintillation counting analysis
# [6] = Inhibition of recombinant full length human PRAK R291E mutant using KKLRRTLSVA as substrate incubated for 40 mins in presence of [gamma33P]ATP by radiometric scintillation counting analysis
# [7] = target: Ribosomal protein S6 kinase alpha-1 (Homo sapiens, UniProt Q15418); test: Inhibition of recombinant full length human Rsk1 using KKKNRTLSVA as substrate incubated for 40 mins in presence of [gamma33P]ATP by radiometric scintillation counting analysis
# [8] = target: Mitogen-activated protein kinase 13 (Homo sapiens, UniProt O15264); test: Inhibition of recombinant human full length SAPK4 using myelin basic protein as substrate incubated for 40 mins in presence of [gamma33P]ATP by radiometric scintillation counting analysis
# [9] = target: Serine/threonine-protein kinase TAO1 (Homo sapiens, UniProt Q7L7X3); test: Inhibition of recombinant human TAO1 (1 to 327 residues) using myelin basic protein as substrate incubated for 40 mins in presence of [gamma33P]ATP by radiometric scintillation counting analysis
# [10] = target: PI3-kinase p110-alpha/p85-alpha (Homo sapiens, UniProt P42336, H1047R); test: Inhibition of recombinant human full length PI3K p110alpha/p85alpha H1047R mutant using phosphatidylinositol 4,5-bisphosphate as substrate incubated for 40 mins in presence of [gamma33P]ATP by radiometric scintillation counting analysis
# PI3-kinase p110-alpha/p85-alpha, sequence (P42336 whole entry H1047R, looked up): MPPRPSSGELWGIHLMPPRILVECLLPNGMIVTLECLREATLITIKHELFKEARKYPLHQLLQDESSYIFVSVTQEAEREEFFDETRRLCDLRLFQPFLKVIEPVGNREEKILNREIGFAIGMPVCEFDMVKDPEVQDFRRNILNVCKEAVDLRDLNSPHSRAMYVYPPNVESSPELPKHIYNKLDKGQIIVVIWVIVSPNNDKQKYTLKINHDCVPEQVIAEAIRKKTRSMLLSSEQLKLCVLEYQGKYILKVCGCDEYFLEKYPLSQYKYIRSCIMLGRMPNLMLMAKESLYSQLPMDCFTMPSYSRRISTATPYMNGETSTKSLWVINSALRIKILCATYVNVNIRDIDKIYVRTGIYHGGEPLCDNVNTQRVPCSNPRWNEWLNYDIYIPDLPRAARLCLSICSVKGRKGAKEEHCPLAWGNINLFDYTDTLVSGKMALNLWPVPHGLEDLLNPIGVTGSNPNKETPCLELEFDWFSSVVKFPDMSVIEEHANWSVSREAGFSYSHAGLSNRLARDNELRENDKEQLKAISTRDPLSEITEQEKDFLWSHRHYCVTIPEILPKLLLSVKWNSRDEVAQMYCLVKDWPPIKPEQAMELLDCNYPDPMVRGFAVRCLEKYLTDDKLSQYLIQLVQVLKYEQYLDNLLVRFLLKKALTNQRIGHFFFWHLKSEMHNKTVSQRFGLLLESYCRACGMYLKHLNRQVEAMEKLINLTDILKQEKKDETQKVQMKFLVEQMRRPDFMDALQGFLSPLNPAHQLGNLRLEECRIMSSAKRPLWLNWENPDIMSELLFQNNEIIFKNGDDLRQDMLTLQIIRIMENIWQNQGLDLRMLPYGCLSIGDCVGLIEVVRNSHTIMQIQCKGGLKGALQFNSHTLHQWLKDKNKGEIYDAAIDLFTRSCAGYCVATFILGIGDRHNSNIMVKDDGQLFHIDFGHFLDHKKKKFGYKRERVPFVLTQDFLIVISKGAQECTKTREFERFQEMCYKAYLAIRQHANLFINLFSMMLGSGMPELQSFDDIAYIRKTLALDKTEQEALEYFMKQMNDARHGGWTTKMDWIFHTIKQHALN
# Serine/threonine-protein kinase Nek1, sequence (Q96PY6 whole entry, the tested form may be a part): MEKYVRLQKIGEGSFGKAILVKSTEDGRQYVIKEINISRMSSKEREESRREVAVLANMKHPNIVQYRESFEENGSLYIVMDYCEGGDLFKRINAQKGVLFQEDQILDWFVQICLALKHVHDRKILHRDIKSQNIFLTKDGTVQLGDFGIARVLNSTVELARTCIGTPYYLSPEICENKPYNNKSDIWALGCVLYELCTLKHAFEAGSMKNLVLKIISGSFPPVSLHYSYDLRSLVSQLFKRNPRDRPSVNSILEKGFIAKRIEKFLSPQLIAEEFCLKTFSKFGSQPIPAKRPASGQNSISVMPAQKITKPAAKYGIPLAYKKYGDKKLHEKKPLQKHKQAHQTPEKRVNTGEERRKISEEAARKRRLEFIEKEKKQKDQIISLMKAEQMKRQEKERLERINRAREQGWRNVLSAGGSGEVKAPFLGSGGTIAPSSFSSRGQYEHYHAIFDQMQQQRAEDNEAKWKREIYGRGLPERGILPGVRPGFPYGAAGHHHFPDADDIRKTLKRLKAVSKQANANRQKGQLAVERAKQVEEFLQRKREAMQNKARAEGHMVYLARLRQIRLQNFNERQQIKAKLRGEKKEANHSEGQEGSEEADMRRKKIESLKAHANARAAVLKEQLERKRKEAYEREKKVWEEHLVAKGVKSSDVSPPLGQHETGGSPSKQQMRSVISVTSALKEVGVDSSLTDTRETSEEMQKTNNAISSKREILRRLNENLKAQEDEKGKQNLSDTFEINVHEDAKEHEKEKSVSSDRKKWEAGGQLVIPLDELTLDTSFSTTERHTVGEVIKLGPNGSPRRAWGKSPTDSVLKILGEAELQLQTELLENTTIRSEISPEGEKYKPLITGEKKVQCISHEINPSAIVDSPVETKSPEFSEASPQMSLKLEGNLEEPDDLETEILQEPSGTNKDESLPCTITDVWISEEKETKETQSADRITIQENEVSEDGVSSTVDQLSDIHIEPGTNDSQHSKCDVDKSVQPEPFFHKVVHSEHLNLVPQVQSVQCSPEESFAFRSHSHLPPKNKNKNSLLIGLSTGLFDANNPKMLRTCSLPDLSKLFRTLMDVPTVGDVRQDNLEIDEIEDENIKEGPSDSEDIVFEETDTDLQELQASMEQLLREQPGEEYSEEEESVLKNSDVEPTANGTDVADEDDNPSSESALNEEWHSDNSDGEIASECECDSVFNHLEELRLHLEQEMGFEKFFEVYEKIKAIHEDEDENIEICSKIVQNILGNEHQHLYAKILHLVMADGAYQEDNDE
# Serine/threonine-protein kinase TAO1, sequence (Q7L7X3 whole entry, the tested form may be a part): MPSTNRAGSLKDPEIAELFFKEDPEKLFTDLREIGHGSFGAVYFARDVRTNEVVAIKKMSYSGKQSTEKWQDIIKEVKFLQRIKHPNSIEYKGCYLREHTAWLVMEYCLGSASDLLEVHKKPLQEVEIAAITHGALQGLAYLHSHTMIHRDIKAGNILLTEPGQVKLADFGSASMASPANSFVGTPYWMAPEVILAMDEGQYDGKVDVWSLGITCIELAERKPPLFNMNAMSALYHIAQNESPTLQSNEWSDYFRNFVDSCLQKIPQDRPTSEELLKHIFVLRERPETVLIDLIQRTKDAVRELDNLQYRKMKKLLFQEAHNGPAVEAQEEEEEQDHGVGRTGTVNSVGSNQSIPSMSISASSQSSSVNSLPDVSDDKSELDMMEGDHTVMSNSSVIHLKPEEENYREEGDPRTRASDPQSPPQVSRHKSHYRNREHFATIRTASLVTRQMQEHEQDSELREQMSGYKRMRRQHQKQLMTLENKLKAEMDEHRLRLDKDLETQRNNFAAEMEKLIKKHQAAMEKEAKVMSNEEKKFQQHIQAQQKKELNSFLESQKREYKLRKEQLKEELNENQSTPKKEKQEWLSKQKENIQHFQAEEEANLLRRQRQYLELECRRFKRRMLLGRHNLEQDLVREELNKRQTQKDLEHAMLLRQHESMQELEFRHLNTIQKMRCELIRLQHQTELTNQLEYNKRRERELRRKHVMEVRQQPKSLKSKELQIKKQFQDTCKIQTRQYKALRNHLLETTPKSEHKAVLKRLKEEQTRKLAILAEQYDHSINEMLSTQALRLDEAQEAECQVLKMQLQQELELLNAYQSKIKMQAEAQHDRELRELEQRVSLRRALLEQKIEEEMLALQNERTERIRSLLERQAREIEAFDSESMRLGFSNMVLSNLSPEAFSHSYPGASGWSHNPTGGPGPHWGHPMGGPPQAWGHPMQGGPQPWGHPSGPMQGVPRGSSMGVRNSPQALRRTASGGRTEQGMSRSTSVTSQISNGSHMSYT
# Mitogen-activated protein kinase 13, sequence (O15264 whole entry, the tested form may be a part): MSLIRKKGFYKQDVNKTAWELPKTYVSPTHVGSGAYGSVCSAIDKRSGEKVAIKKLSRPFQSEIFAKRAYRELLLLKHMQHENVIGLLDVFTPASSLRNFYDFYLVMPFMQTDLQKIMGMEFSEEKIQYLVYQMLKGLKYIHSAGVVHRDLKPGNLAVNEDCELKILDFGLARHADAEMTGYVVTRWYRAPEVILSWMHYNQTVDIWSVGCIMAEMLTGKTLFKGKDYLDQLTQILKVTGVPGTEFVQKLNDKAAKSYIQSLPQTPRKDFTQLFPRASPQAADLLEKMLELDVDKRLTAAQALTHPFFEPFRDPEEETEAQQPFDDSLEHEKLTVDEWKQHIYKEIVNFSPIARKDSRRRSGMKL
# Ephrin type-A receptor 1, sequence (P21709 whole entry): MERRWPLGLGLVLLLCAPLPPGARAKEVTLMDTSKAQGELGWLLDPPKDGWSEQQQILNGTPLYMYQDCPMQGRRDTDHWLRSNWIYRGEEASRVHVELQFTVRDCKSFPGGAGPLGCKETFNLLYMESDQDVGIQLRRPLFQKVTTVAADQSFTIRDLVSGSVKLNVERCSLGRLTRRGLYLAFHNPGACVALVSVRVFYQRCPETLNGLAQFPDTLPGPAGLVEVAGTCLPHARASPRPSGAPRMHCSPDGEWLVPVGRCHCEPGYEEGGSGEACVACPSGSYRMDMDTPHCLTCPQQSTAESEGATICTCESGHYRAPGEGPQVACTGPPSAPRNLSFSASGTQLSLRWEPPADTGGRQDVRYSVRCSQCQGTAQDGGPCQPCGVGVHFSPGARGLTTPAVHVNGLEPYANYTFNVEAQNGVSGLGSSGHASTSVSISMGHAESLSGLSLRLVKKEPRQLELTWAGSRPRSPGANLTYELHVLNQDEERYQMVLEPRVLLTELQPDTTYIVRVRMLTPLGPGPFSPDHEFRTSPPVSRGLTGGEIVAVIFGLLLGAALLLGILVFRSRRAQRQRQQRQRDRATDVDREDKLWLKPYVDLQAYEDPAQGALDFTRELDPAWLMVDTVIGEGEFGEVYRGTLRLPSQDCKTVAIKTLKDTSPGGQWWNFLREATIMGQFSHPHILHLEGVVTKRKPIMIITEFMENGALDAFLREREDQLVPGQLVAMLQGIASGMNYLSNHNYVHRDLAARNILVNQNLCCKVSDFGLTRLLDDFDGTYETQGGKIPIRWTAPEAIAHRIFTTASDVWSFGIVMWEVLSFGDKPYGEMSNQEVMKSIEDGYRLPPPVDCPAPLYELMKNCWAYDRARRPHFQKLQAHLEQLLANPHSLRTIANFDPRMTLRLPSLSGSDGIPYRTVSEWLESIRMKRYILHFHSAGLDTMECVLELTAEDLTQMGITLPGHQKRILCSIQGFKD
structure (smiles),measurement,setting,value
CN(C)c1ccc(C(=O)Nc2cccc(NC(=O)COc3ccc4c(=O)ccoc4c3)c2)cc1,IC50,[1],0.003 µM
same,IC50,[2],> 10 µM
same,IC50,[3],> 10 µM
same,IC50,[4],> 10 µM
same,IC50,[5],> 10 µM
same,IC50,[6],> 10 µM
same,IC50,[7],> 10 µM
same,IC50,[8],> 10 µM
same,IC50,[9],> 10 µM
same,IC50,[10],> 10 µM
